Test [1] deals with hypocotyl of Arabidopsis (Columbia). Put plainly: Functional analysis of putative fipexide metabolites, morphological observation of cut hypocotyl on 1/2 MS medium. It counts as cell-based. Conditions: for callus induction activity: 0, 5, 15, 30, 45 or 60 μM in 1/2 MS medium, hypocotyl. The source says: Fipexide is a compound formed by an amide bond between 4-chlorophenoxyacetic acid and 1-piperonylpiperazine, and fipexide is deduced to be non-enzymatically hydrolyzed in a plant. Thus, treatment with 4-chlorophenoxyacetic acid or 1-piperonylpiperazine alone or treatment with both thereof was attempted.
Arabidopsis (Columbia) was allowed to germinate under weak lighting conditions for 7 days, the hypocotyl cut therefrom was placed on a ½ MS medium supplemented with 4-chlorophenoxyacetic acid and/or 1-piperonylpiperazine at 0, 5, 15, 30, 45, or 60 μM, and morphological observation thereof was conducted.

Test [2] concerns African violet leaf explants. Conditions: cited from earlier work.
Test [3] has as its system stalks and roots of wild-type Populus. Put plainly: Fipexide callus induction and redifferentiation in stalks and roots of Populus. The class given is cell-based. The protocol: The induced callus was cultured in a redifferentiation medium (i.e., a MS medium (0.9% agarose and 1.5% sucrose) containing auxin (indoleacetic acid) at 0.15 mg/1 and cytokinine (N^6-2-isopentenyladenine) at 0.5 mg/l or a ½ MS medium (0.9% Phytoagar (agarose for plants) and 0.2% sucrose) containing 3-indolebutyric acid (IBA) at 0.1 mg/l and 6-benzylaminopurine (BAP) at 0.2 mg/l).
The conditions of the aseptic stalk (which is not the hypocotyl) and the root organ sections of wild-type Populus 30 days after cutting in the presence of fipexide are shown at the center of FIG. 7, and the conditions thereof 30 days after the medium was exchanged with a fresh redifferentiation medium are shown on the right of FIG. 7.

The subject of the next test is soybean seed (Tsurunoko). Kind of test: Fipexide activity test using other plants: soybean seed in fipexide medium. It counts as in vivo. Here is the method: (§1) As with the case of Arabidopsis germination conditions, plants were cultured in a fipexide medium with the use of sterilized seeds.
In another test the test system is tomato seed (Micro-Tom). Put plainly: Fipexide activity test using other plants: tomato seed in fipexide medium. It counts as in vivo. Here is the method:
as §1

The subject of test [4] is Arabidopsis (Columbia) wild-type seeds. Put plainly: Morphological observation of Arabidopsis (Columbia) by treatment with fipexide (seeds sowed in 1/2 MS medium). The class given is in vivo. Conditions: for callus formation (site): 1/2 MS medium, seeds. Here is the method: Wild-type seeds of Arabidopsis (Columbia) were sowed in a ½ MS medium supplemented with fipexide at 0, 15, 30, or 45 μM, and morphological observation was conducted.

In test [5] the test system is Populus stalk samples (Populus tremula x tremuloides T89). Put plainly: Transformation by the Agrobacterium method utilizing callus induction caused by fipexide. The class given is cell-based. Here is the method:
Under general callus induction conditions for Populus, callus induction was conducted with the use of fipexide instead of auxin/cytokinine, and whether or not Agrobacterium-infected callus was transformed was examined. The GUS gene was introduced into a pH35GS binary vector comprising a Gateway cassette (Kubo M. et al., Genes & Dev., 19, 1855-1860, 2005) (manufactured by […] Innovations Inc.; Production code: IN3-VEC17) using the Gateway system, and the resulting binary vector was used for the Agrobacterium method, so as to confirm infection. 1. From young plants of aseptically cultured Populus (Populus tremula x tremuloides […]) that had been grown in pots, stalk samples (length: 5 mm) were cut. 2. The stalk samples were cultured in the presence of Agrobacterium (for 3 days, in the dark, at 22° C.). 3. After Agrobacterium was washed away, the stalk samples were placed on MS1 medium or modified MS1 medium (containing 30 μM fipexide instead of 3-indolebutyric acid (IBA) and 6-benzylaminopurine (BAP)) and cultured at 25° C. 4. […] Two months after the initiation of callus induction culture, 23 calluses were fixed in 90% (w/w) acetone at -30° C. overnight, the samples were washed twice with 50 mM PBS buffer (pH 7.0), and the samples were subjected to incubation in GUS substrate solution at 37° C. for 15 minutes for staining.

The test system of test [6] is germinated Eucalyptus seeds. Put plainly: Fipexide activity test using other plants: Eucalyptus seeds in fipexide medium. The class given is in vivo. Here is the method: as §1
The subject of test [7] is root organ of Arabidopsis (Columbia). Put plainly: Callus induction and redifferentiation by treatment with fipexide (cut root organ). It counts as cell-based. The note with it: fipexide 45 μM for 2 weeks. The protocol:
The root organ of Arabidopsis (Columbia) was cut, treated in a ½ MS medium supplemented with fipexide at 45 μM for 2 weeks to induce a callus, and then cultured in a redifferentiation medium (auxin/cytokinine). […] In contrast, the root organ of Arabidopsis (Columbia) was cut and then cultured in the redifferentiation medium without callus induction. As a result, redifferentiation was not observed (FIG. 2B).

The next test relates to Arabidopsis hypocotyl. Kind of test: Comparison of fipexide with conventional technique (2,4-D/kinetin) for callus induction. The class given is cell-based. The note with it: fipexide 45 μM vs 2,4-dichlorophenoxyacetic acid 2.26 μM and kinetin 0.465 μM, constant lighting, 87 days. Here is the method:
Callus induction in Arabidopsis that was carried out at the optimized auxin/cytokinine concentration (i.e., 2,4-dichlorophenoxyacetic acid at 2.26 μM and kinetin at 0.465 μM) was compared with callus induction that was carried out at the fipexide concentration of 45 μM.

The test system of test [8] is wild-type rice (Nipponbare). Kind of test: Fipexide activity test using other plants: rice seeds in fipexide medium. The class given is in vivo. The protocol: as §1
The subject of test [9] is cucumber seed (Natsu Suzumi). Put plainly: Fipexide activity test using other plants: cucumber seed in fipexide medium. It counts as in vivo. Here is the method:
as §1

The text below walks through data of patent publication US11345885B2, “Agent for inducing callus and method for inducing callus” (RIKEN, priority 2014, dated 2022).

For the compound `c1cc2c(cc1CN1CCNCC1)OCO2` [1-piperonylpiperazine, 1-(3,4-methylenedioxybenzyl)piperazine], the callus induction activity in [1] is reported as “callus induction activity was not observed”. Further, in test [1] (treatment alone), the leaf area entry is given as “enlarged”; the “number and length of lateral roots” value is “increased”.
As to `O=C(O)COc1ccc(Cl)cc1` [4-chlorophenoxyacetic acid], in test [2], the callus formation efficiency is given as “not high”. Also, the “number of days required from implanting of explants to callus formation, and formation of adventitious shoots and adventitious roots” value in [2] (treatment at a particular concentration) is given as “reduced”. The callus induction activity in [1] is given as “callus induction activity was observed”.
For the compound `O=C(COc1ccc(Cl)cc1)N1CCN(Cc2ccc3c(c2)OCO3)CC1` [fipexide, 1-[(p-chlorophenoxy)acetyl]-4-piperonylpiperazine], the “redifferentiation of the induced callus in redifferentiation medium” value in test [3] (MS medium with indoleacetic acid 0.15 mg/l and N6-2-isopentenyladenine 0.5 mg/l, or 1/2 MS medium with IBA 0.1 mg/l and BAP 0.2 mg/l) is reported as “redifferentiation was observed”. The callus induction in [3] (stalks and roots of Populus in fipexide medium) is “callus induction was observed in the stalks and the roots”; in the test with soybean seed (Tsurunoko), “callus induction was observed”; in the test on tomato seed (Micro-Tom) it was “callus induction was observed”; in [6], “callus induction was observed”; in test [8] (germinated rice seeds, fipexide medium) it was “callus induction was observed”; in test [9] it was “callus induction was observed”. Besides, the “callus formation (site)” value in test [4] (fipexide 15 μM (low concentration)) is given as “callus formation was mainly observed in the root”; in test [4] (fipexide 45 μM (high concentration)), “in the shoot apex”. In addition, in test [4] (fipexide at high concentration), the “callus formation in the root” value is on record as “suppressed”. The “GUS activity in calluses (transformation)” value in test [5] (23 calluses, two months after initiation of callus induction culture, 30 μM fipexide) is given as “GUS activity was observed in all samples”. The “callus formation on the fourth week” value in [5] (Agrobacterium-treated stalk samples, 25° C., modified MS1 medium with 30 μM fipexide vs conventional MS1 medium) was “many calluses were formed”. The “redifferentiation in redifferentiation medium (auxin/cytokinine) after callus induction” value in test [7] is “redifferentiation was observed”. The “callus induction efficiency compared with optimized auxin/cytokinine” value with Arabidopsis hypocotyl is “higher than that attained at the optimized auxin/cytokinine concentration”. In addition, the callus formation in test [8] (fipexide 45 μM, 30 days after seed germination) was “Callus formation was observed”. For the same compound, the callus induction activity in test [1] is listed as “callus induction activity was observed”.
